The test system of data set [1] is gene expression of CD27, PD1, CTLA4, or PDL1. The experiment in a line: Pearson correlation of drug-response measurements with gene expression of ICIs in human NSCLC epithelial cell lines. The settings on record: for correlation of EC50 with CD27 mRNA expression: p<0.05, Pearson's correlation test, NSCLC cell lines (n=79, FIG. 18B). The text has this:
(§1) The PRISM dataset. was obtained from the DepMap portal (https://depmap.org/portal/download/, PRISM repurposing 19Q4, accessed on 1 Apr. 2021). Carboplatin, cisplatin, docetaxel, erlotinib, etoposide, gefitinib, gemcitabine, paclitaxel (Taxol), pemetrexed, and vinorelbine were commonly used chemotherapeutic drugs in NSCLC treatment, the analysis focused on these ten regiments. Drug activity measurements, including IC50, ln(IC50), EC50, and ln(EC50), were used in the analysis. The available CCLE NSCLC cell lines were divided into three groups by the drug activity measurements: sensitive, resistant, and intermediate.
(§2) Drug activity measurements were generated in the GDSC Project. (https://www.cancerrxgene.org/downloads/bulk_download, accessed on 15 Apr. 2021). IC50 and ln(IC50) were the main metrics used in this analysis. The available CCLE NSCLC cell lines were divided into three groups by the drug activity measurements in the GDSC1/2 datasets, i.e., sensitive, resistant, and intermediate.
RStudio (version 1.4.1106), an integrated development environment for R, was used as the main tool for performing the statistical analyses. A two-tailed, unpaired Student's t-test was used to evaluate the significance of differential expression between two groups. Survival analysis and curves were generated using the Kaplan-Meier method, and log-rank tests were used to assess the difference in survival probability between different groups. The univariate and multivariate Cox regression analyses were used in the prognostic evaluation and curve generation with R packages “survival”, “survminer”, and “ggplot2”. The strength of the linear relationship between two sample groups was measured with Pearson's correlation test. Results in statistical tests were considered significant with a p-value<0.05.
Several targeted therapeutic candidates were identified with CMap.

For data set [2], the system named is xenograft mouse model of lung cancer. Conditions: cited from earlier work.
The next data set relates to NSCLC cells. The settings on record: cited from earlier work.
Data set [3] relates to NSCLC. Conditions: combination with gefitinib in NSCLC; cited from earlier work.
Data set [4] relates to mRNA expression of CD27, PD1, or PDL1. Nature of the data set: Pearson correlation of drug concentration (PRISM, GDSC1, GDSC2) with mRNA expression of immune checkpoint genes in CCLE NSCLC cell lines. Further details: species or system human. Conditions: p<0.05, Pearson's correlation, datasets PRISM, CCLE NSCLC cell lines (n=117). The text has this:
The growth inhibitory activity of 4,518 drugs was quantified in 578 human cancer cell lines using the PRISM molecular barcoding and multiplexed screening method. The PRISM dataset is available at the Cancer Dependency Map portal (https://depmap.org/portal/download/, accessed on 1 Apr. 2021). Drug responses of 9 commonly used chemotherapeutic regimens in treating NSCLC were included: carboplatin, cisplatin, paclitaxel, docetaxel, gemcitabine, vinorelbine, etoposide, gefitinib, and erlotinib. For each drug, cell lines with IC50 or EC50 value higher than the maximum dose were defined as resistant; cell lines with IC50 or EC50 value lower than the minimum dose were defined as sensitive. The remaining cell lines were divided into groups of resistant, sensitive, or partial response by using the mean±0.5 standard deviation (SD) of the drug activity metrics, including IC50, ln(IC50), EC50, or ln(EC50) values. Cell lines with a drug activity value less than the mean−0.5 SD were defined as sensitive to the drug, and those with a drug activity value between the mean+0.5 SD and the mean−0.5 SD were defined as having a partial response to the drug. Cell lines with a drug activity value greater than the mean+0.5 SD were defined as resistant to the drug. This categorization corresponds to the RECIST 1.1 system (i.e., complete response, partial response, and stable disease/disease progression) in evaluating chemotherapeutic response in solid tumors. Drug screening data was downloaded from Genomics of Drug Sensitivity in Cancer (GDSC) Project (https://www.cancerrxgene.org/downloads/bulk_download, accessed on 15 Apr. 2021). The GDSC Project screened more than 1,000 genetically characterized human cancer cell lines with a wide range of anti-cancer therapeutic agents. Among the commonly used chemotherapeutic regimens in treating NSCLC drugs, […] were found in GDSC1, including cisplatin, docetaxel, erlotinib, etoposide, gefitinib, gemcitabine, pemetrexed, and vinorelbine; 7 were found in GDSC2, including cisplatin, docetaxel, erlotinib, gefitinib, gemcitabine, paclitaxel, and vinorelbine. For each drug, cell lines were defined as resistant, sensitive, or partial response by using the mean±0.5 SD of the IC50 values as described above. Various statistical methods can be utilized. Statistical analysis was performed using Rstudio version 1.4.1106. […] Survival analysis was performed using Kaplan-Meier analysis with the survival package in R. Log-rank tests were used to assess the difference in survival probability from different groups in Kaplan-Meier analyses. The genes in the networks were evaluated with Cox proportional hazard model and Kaplan-Meier analysis. Pearson's correlation test was used to find the relationship be-tween two variables. The multivariate Cox regression analysis was used to build the model of risk-scores. […] Pearson's correlation test was used to find the relationship between two variables. One-tailed two proportion z-test was used to compare if two proportions are the same.

The test system of data set [5] is advanced solid tumors including NSCLC. The settings on record: single-agent, cited from earlier work.
Data set [6] relates to human NSCLC epithelial cell lines. Nature of the data set: PRISM/GDSC drug response in human NSCLC epithelial cell lines (n=135). The class given is cell-based. The settings on record: average in human NSCLC epithelial cell lines (FIG. 18C).
Text: as §1, §2

The subject of the next data set is CCLE NSCLC cell lines. The experiment in a line: PRISM drug screen, growth inhibitory activity in CCLE NSCLC cell lines. The class given is cell-based. Conditions: Homo sapiens, read-out: average IC50 or EC50 value. The text has this:
The growth inhibitory activity of 4,518 drugs was quantified in 578 human cancer cell lines using the PRISM molecular barcoding and multiplexed screening method. The PRISM dataset is available at the Cancer Dependency Map portal (https://depmap.org/portal/download/, accessed on 1 Apr. 2021). Drug responses of 9 commonly used chemotherapeutic regimens in treating NSCLC were included: carboplatin, cisplatin, paclitaxel, docetaxel, gemcitabine, vinorelbine, etoposide, gefitinib, and erlotinib. For each drug, cell lines with IC50 or EC50 value higher than the maximum dose were defined as resistant; cell lines with IC50 or EC50 value lower than the minimum dose were defined as sensitive. The remaining cell lines were divided into groups of resistant, sensitive, or partial response by using the mean±0.5 standard deviation (SD) of the drug activity metrics, including IC50, ln(IC50), EC50, or ln(EC50) values. Cell lines with a drug activity value less than the mean−0.5 SD were defined as sensitive to the drug, and those with a drug activity value between the mean+0.5 SD and the mean−0.5 SD were defined as having a partial response to the drug. Cell lines with a drug activity value greater than the mean+0.5 SD were defined as resistant to the drug. This categorization corresponds to the RECIST 1.1 system (i.e., complete response, partial response, and stable disease/disease progression) in evaluating chemotherapeutic response in solid tumors.
The growth inhibitory activity of 4,518 drugs was quantified in 578 human cancer cell lines using the PRISM molecular barcoding and multiplexed screening method. The PRISM dataset is available at the Cancer Dependency Map portal (https://depmap.org/portal/download/, accessed on 1 Apr. 2021). Drug responses of 9 commonly used chemotherapeutic regimens in treating NSCLC were included in this study: carboplatin, cisplatin, paclitaxel, docetaxel, gemcitabine, vinorelbine, etoposide, gefitinib, and erlotinib. For each drug, cell lines with IC50 or EC50 value higher than the maximum dose were defined as resistant; cell lines with IC50 or EC50 value lower than the minimum dose were defined as sensitive. The remaining cell lines were divided into groups of resistant, sensitive, or partial response by using the mean±0.5 standard deviation (SD) of the drug activity metrics, including IC50, ln(IC50), EC50, or ln(EC50) values. Cell lines with a drug activity value less than the mean−0.5 SD were defined as sensitive to the drug, and those with a drug activity value between the mean+0.5 SD and the mean−0.5 SD were defined as having a partial response to the drug. Cell lines a drug activity value greater than the mean+0.5 SD were defined as resistant to the drug. This categorization corresponds to the RECIST 1.1 system (i.e., complete response, partial response, and stable disease/disease progression) in evaluating chemotherapeutic response in solid tumors.

Data set [7] concerns FRα (FOSL1)-positive advanced solid tumors. Conditions: patient derived xenograft models and phase I study; cited from earlier work.
The subject of data set [8] is NSCLC. Conditions: stage IIIB, after chemoradiation, cited from earlier work.
The test system of a further data set is resected NSCLC tumors. Conditions: neoadjuvant; 9 of 20 resected NSCLC tumors, stages I, II, and IIIA; cited from earlier work.
Setting [9] is: CCLE NSCLC cell lines, 7-gene network study (FIG. 13C).
Where [10] appears, read: average over CCLE NSCLC cell lines (n=117), 8 doses 0.0006 μM to 10 μM.

Like-named read-outs stand apart in the source and are kept apart here.

In the case of `Cc1cnc(Nc2ccc(OCCN3CCCC3)cc2)nc1Nc1cccc(S(=O)(=O)NC(C)(C)C)c1` [TG-101348], the “association with PDL1 gene expression” value in data set [1] (human NSCLC epithelial cell lines) is listed as “inhibitory association”. Besides, the “radiosensitization and EMT blockade” value in data set [2] was “mediated radiosensitization and EMT blockade”. Also, in the data set on NSCLC cells, the PDL1 protein expression result was “reduced PDL1 protein expression” and the erlotinib-resistance result was “reversed erlotinib-resistance”.

Take `CC(C)c1ccccc1Cc1cc(C(=O)Nc2ccc(S(=O)(=O)c3ccccc3C(C)(C)C)cc2)c(O)c(O)c1O` [TW-37]: the “effect on pro-apoptosis and anti-migration ability of gefitinib” value with NSCLC [3] is given as “enhanced”.

For `C[C@H]1[C@H](NC(=O)/C(=N\OC(C)(C)C(=O)O)c2csc(N)n2)C(=O)N1S(=O)(=O)O` [aztreonam], the “correlation of drug concentration [IC50, EC50, ln(IC50), or ln(EC50)] with mRNA expression of CD27, PD1, or PDL1” value in [4] is reported as “significant negative correlation”.

Turning to `CO[C@@H](C(=O)N1Cc2n[nH]c(NC(=O)c3ccc(N4CCN(C)CC4)cc3)c2C1)c1ccccc1` [danusertib], in [1], the “correlation of EC50 with CD27 mRNA expression” value was “significant negative correlation”. Further, the “correlation of EC50 with CD27 mRNA expression” value in data set [1] (listed as Danusertib) was “inhibitory association”. The anti-tumor activity result in data set [5] (common solid tumor types) is “marginal anti-tumor activity”. Also, in data set [5] (phase I and phase II clinical studies), the tolerability result was “well tolerated”. In [6], this molecule showed an EC50 of less than 1000 nM and an IC50 of less than 1000 nM.

As for `Cc1nc(Nc2ncc(C(=O)Nc3c(C)cccc3Cl)s2)cc(N2CCN(CCO)CC2)n1` [dasatinib], the IC50 in the data set on CCLE NSCLC cell lines (setting [9]) is no more than 1000 nM.

For the molecule `CCN(CC)C(=S)SSC(=S)N(CC)CC` [disulfiram], the concentration for half-maximal inhibition (IC50) with CCLE NSCLC cell lines (setting [10]) is less than 1000 nM.

`COc1cccc2c1C(=O)c1c(O)c3c(c(O)c1C2=O)C[C@@](O)(C(=O)CO)C[C@@H]3O[C@H]1C[C@H](N)[C@H](O)[C@H](C)O1` [doxorubicin]: in the data set on CCLE NSCLC cell lines (setting [10]), the 50% inhibitory concentration (IC50) is less than 1000 nM.

Take `CC1CC(OC(=O)c2ccccc2O)CC(C)(C)C1` (stereo not shown) [homosalate]: the concentration for half-maximal inhibition (IC50) in the data set with CCLE NSCLC cell lines (setting [9]) was no more than 1000 nM.

As to `CCc1c2c(nc3ccc(OC(=O)N4CCC(N5CCCCC5)CC4)cc13)-c1cc3c(c(=O)n1C2)COC(=O)[C@]3(O)CC` [irinotecan], the “correlation of drug concentration [IC50, EC50, ln(IC50), or ln(EC50)] with mRNA expression of CD27, PD1, or PDL1” value in data set [4] was “significant negative correlation”.

In [6], `C[C@]12O[C@H](C[C@]1(O)CO)n1c3ccccc3c3c4c(c5c6ccccc6n2c5c31)CNC4=O` [lestaurtinib] showed an EC50 of less than 1000 nM and an IC50 of less than 1000 nM. The IC50 in the data set with CCLE NSCLC cell lines (setting [9]) is no more than 1000 nM.

As to `O=C1c2c(O)ccc(O)c2C(=O)c2c(NCCNCCO)ccc(NCCNCCO)c21` [mitoxantrone], the “correlation of drug concentration [IC50, EC50, ln(IC50), or ln(EC50)] with mRNA expression of CD27, PD1, or PDL1” value in data set [4] is reported as “significant negative correlation”. The half-maximal inhibitory concentration (IC50) with CCLE NSCLC cell lines (setting [10]) was less than 1000 nM.

As for `OC1(c2ccc(Cl)c(C(F)(F)F)c2)CCN(CCCC(c2ccc(F)cc2)c2ccc(F)cc2)CC1` [penfluridol], the IC50 in the data set with CCLE NSCLC cell lines (setting [9]) was no more than 1000 nM.

For `COc1cc(/C=C/C(=O)N2CCC=CC2=O)cc(OC)c1OC` [piperlongumine], the “correlation of drug concentration [IC50, EC50, ln(IC50), or ln(EC50)] with mRNA expression of CD27, PD1, or PDL1” value in [4] is recorded as “significant negative correlation”.

Regarding `COc1ccc(C[C@H](N)C(=O)N[C@H]2[C@@H](O)[C@H](n3cnc4c(N(C)C)ncnc43)O[C@@H]2CO)cc1` [puromycin], the “correlation of drug concentration [IC50, EC50, ln(IC50), or ln(EC50)] with mRNA expression of CD27, PD1, or PDL1” value in [4] was “significant negative correlation”.

`CC(/C=C/C(=O)NO)=C\[C@@H](C)C(=O)c1ccc(N(C)C)cc1` [trichostatin A]: the “correlation of drug concentration [IC50, EC50, ln(IC50), or ln(EC50)] with mRNA expression of CD27, PD1, or PDL1” value in [4] is recorded as “significant negative correlation”.

In the case of MORAb-202, the antitumor response entry in data set [7] is listed as “robust antitumor response”.

Consider durvalumab: anti-PD-L1, for which, in the data set with NSCLC [8] (durvalumab arm), the “median OS” value is “not reached”. Moreover, the “overall survival HR vs placebo arm” value with NSCLC [8] (phase III randomized trial) was 0.69 (95% CI 0.55-0.86).

Turning to ivermectin, the “correlation of drug concentration [IC50, EC50, ln(IC50), or ln(EC50)] with mRNA expression of CD27, PD1, or PDL1” value in data set [4] is on record as “significant negative correlation”.

For nivolumab: PD-1 inhibitor, the pathological response in the data set with resected NSCLC tumors is 45%.

These data come from US20250019769A1, “REPURPOSING DRUGS FOR NON-SMALL CELL LUNG CANCER” (WEST VIRGINIA UNIVERSITY BOARD OF GOVERNORS ON BEHALF OF …, priority 2021, published 2025).
